Data set [1] in a line: Antidepressant activity shown against tetrabenazine ptosis (T.P.) after p.o. administration. It is filed as in vivo. As to conditions: for ED50: po, read-out: T.P. ED50; for TI (therapeutic index), T.P.: tetrabenazine ptosis, p.o. administration, TI = therapeutic index = LD50 (so in the source).
From the text: (§1) Antidepressant activity of some of compounds of formulae Ia
(§2) and Ib shown against tetrabenazine ptosis (T.P.) and
(§3) analgesic activity in Writhing test (W.t.) after p.o. administration
TI = therapeutica1 index = LD50
The nature of data set [2]: Analgesic activity in Writhing test (W.t.) after p.o. administration. Format: in vivo. Conditions: for ED50: po, read-out: W.t. ED50. Background: In writhing tests, fewer writhes than in controls are read as antinociception.
From the text: as §1, §2, §3
TI = therapeutica1 index = LD50

The results in this text go back to patent US5064826A, “Novel triazolo-pyrimidine derivatives” (priority 1989, dated 1991).

SMILES strings stand for the structures.

`O=c1c2c([nH]c3nc(NC4CCCCC4)nn13)CCCS2` [Example 25, 2-Cyclohexylamino-5,7,8,9-tetrahydrothiopyrano[3,2-d]-1,2,4-triazolo[1,5-a]pyrimidine-5(10H)-one]: in data set [1], the ED50 (commonly the dose that gives a 50% effect, or the effect in half of the subjects) came to 22.5 mg/kg and the “TI (therapeutic index), T.P.” value came to 87.

For `CC(C)(C)Nc1nc2[nH]c3c(c(=O)n2n1)SCCC3` [Example 26, 2-t-Butylamino-5,7,8,9-tetrahydrothiopyrano[3,2-d]-1,2,4-triazolo[1,5-a]pyrimidine-5(10H)-one], the “TI (therapeutic index), W.t.” value in data set [2] (Writhing test, p.o. administration, TI = therapeutic index = LD50 (so in the source)) stood at 5.6. The ED50 in data set [2] turned out to be 355 mg/kg.

As to `O=c1c2c([nH]c3nc(N4CCOCC4)nn13)CCCS2` [Example 21, 2-Morpholino-5,7,8,9-tetrahydrothiopyrano[3,2-d]-1,2,4-triazolo[1,5-a]pyrimidine-5(10H)-one], in data set [1], the ED50 was 5.2 mg/kg and the “TI (therapeutic index), T.P.” value is listed as 385.

On to `CC(=O)Nc1ccc(O)cc1` [paracetamol, p(acetylamino)-phenol, reference compound], for which the ED50 in data set [2] came to 421 mg/kg.

Turning to `CN(C)CCC=C1c2ccccc2CCc2ccccc21` [amitriptyline, 5(3-dimethylaminopropylidene)dibenz/a,d/1,4-cycloheptadiene, reference compound], in data set [1], the ED50 was 12 mg/kg and the “TI (therapeutic index), T.P.” value is recorded as 19.

Regarding `CN(C)c1nc2[nH]c3c(c(=O)n2n1)SCCC3` [Example 19, 2-Dimethylamino-5,7,8,9-tetrahydrothiopyrano[3,2-d]-1,2,4-triazolo[1,5-a]pyrimidine-5(10H)-one], in data set [1], the ED50 came to 2.7 mg/kg and the “TI (therapeutic index), T.P.” value is recorded as 748.
